From patent EP4644375A1, “SUBSTITUTED HYDROQUINOLINES FOR THE TREATMENT OF GLIOBLASTOMA MULTIFORME” (Molius Saglik Teknolojileri Anonim Sirketi, priority 2024, dated 2025)

What was measured:
[1] = In vivo GBM rat model: plasma chemistry; conditions: GBM rats, 30 mg/kg oral, 5 days, plasma at necropsy
Protocol: (§1) The parameters that were analysed can be seen in Table 11.

[2] = tested on: U87-MG human glioma cell; assay: Cell proliferation analysis (MTT); type: cell-based; conditions: reference drugs, MTT
[3] = tested on: U138-MG human glioma cell; assay: Cell proliferation analysis (MTT); type: cell-based; conditions: reference drugs, MTT
[4] = In vivo GBM rat model: body weight; conditions: treated GBM rats compared to the GBM rats, 30 mg/kg oral, 5 days
Protocol: An in Vivo study was performed to assess the therapeutic potential of TR-G002, TR-G045, TR-G053, TR-G066, TR-G071 and TR-G091 in the GBM xenograft rat model when administered orally by gavage for five consecutive days. 152 female rats of the Sprague Dawley strain were allocated to the study. Six groups of sixteen females were given dose of 30 mg/kg of the respective target compounds. […] The study design can be seen in Fig. 11 and Table 10.
Individual body weights were manually calculated. Group mean body weights; group mean body weight changes and organ weights were also manually calculated without statistical analysis. To determine the density of positive staining from immunohistochemical and immunofluorescence staining images, five randomly selected areas were evaluated using ZEISS Zen Imaging Software. Data were statistically defined as mean and standard deviation (mean ± SD) for the percentage of the area. One-way ANOVA followed by the Tukey test was performed to compare immunoreactive cells and immune-positive stained areas with healthy controls. GraphPad Prism software was used for analysis.

[5] = Peripheral blood micronucleus assay; type: in vivo, Rat
Protocol: Blood smears were made on clean microscope slides, allowed to air-dry, treated with methanol for fixation, and then stained with Giemsa (10% in 0.1 mM of sodium phosphate buffer, pH 6.8) for 10 min. After washing with PBS, the slides were examined under a light microscope. The frequencies of micronuclei (MN) were calculated by evaluating 1000 cells per animal.

[6] = In vivo GBM rat model: haematology
Protocol: as §1

[7] = GBM rats, 30 mg/kg oral, 5 days, blood at necropsy

Cn1nnc2c(C(N)=O)ncn2c1=O [TMZ, Temozolomide, reference compound]
ALP [1]: 128.7 IU/L
ALT [1]: 42.4 IU/L
AST [1]: 114.63 IU/L
GLU [1]: 311 mg/dL
LDH [1]: 499.85 IU/L
LDL C [1]: 5.12 mmol/L
TG [1]: 111 mg/dL
Inhibition (%) [2]: 20%
Proliferation (%) [2]: 80%
Inhibition (%) [3]: 22%
Proliferation (%) [3]: 78%
body weight [4]: No significant change in body weight
MN frequency ([5]; GBM rats, 30 mg/kg oral, 5 days, 1000 cells per animal evaluated): 14.32 ± 3.10
MN frequency (comparison) ([5]; treated GBM rats): highest observed MN frequency
HCT [6, 7]: 48.13%
HGB [6, 7]: 15.13 g/dL
MCH [6, 7]: 18.10 pg
MCHC [6, 7]: 31.47 g/dL
MCV [6, 7]: 57.55 fL
PLT [6, 7]: 829.67 10^9 /L
RBC [6, 7]: 8.36 10^12/L
WBC [6, 7]: 4.92 10^9/L
PLT levels ([6]; compared to GBM rats): no significant changes
WBC level ([6]; compared to the GBM rats): did not cause any significant changes
